The values below come from patent publication US20260210856A1, “CONJUGATED OLIGOELECTROLYTES WITH BORON-DIPYRROMETHENE CORES AND METHODS THEREOF” (National University of Singapore, priority 2022, published 2026).

Structures are written as SMILES.

Series [1] in a line: Fluorescence imaging of stained GUVs. The series is classed as physicochemical. The note with it: POPC GUV, normal light. The source says: Giant unilamellar vesicles (GUVs) composed of 1-palmitoyl-2-oleoyl-glycero-3-phosphocholine (POPC) were chosen as the model membrane system for the initial studies because of their ideal size (diameter>1 μm) for imaging via optical microscopy. […] COE-BY series are thus embedded within the bilayer as membrane-spanning probes, a geometric consideration relevant to measuring membrane tension across the whole lipid bilayer, instead of a single leaflet.

Series [2] can be described thus: FLIM of stained GUVs with varying compositions. The series is classed as physicochemical. The settings on record: 1 μM. From the text:
FLIM is a time-resolved method used to obtain information on the emission decay of a fluorophore in different cellular environments. Being independent of parameters such as local dye concentration, absorption profile, and excitation intensity, FLIM is sensitive to changes in the fluorophore itself relative to intensity-based measurements. Accordingly, we first used GUV model systems with a well-defined composition to measure the lifetime of the probe in environments of known lipid packing. For this purpose, use used compositions of, in order of increased membrane tension, DOPC, DOPC with cholesterol (Chol), sphyngomyelin (SM) and SM with Chol. This series of GUVs allows us to examine to what extent τw of intercalated COE-BYPhOC4 is responsive to different levels of membrane tension.
GUVs were thus first stained with 1 μM COE-BYPhOC4 and were imaged via conventional FLIM. […] All the lifetimes measured are predominantly described by a mono-exponential fit. […]

In series [3] the test system is A549 cells. As to the kind of experiment: Uptake after pretreatment with endocytic inhibitors, flow cytometry. The series is classed as cell-based. The settings on record: 1 μM dye, 3 h. Here is the method:
(§1) To further understand the internalization of COE-BYPhOC4, A549 and HeLa cells were pretreated with endocytic inhibitors including pharmacological treatments genistein (caveolae-dependent), chlorpromazine (clathrin-dependent) and low temperature (energy-dependent). Cells were then stained by treatment with 1 μM COE-BYPhOC4 and the endocytosis inhibition efficiency was characterized by flow cytometry and fluorescence confocal imaging. […] The confocal images in FIG. 13C provide additional confirmation of this endocytosis pathway. Fluorescence signals are only observed on the plasma membranes in the chlorpromazine pretreated group, while COE-BYPhOC4 readily underwent endocytosis and appeared as red vesicular puncta in the other three groups. Successful plasma membrane staining similar to FIG. 12A also provides evidence of insertion into the membrane prior to endocytosis and subsequent trafficking together with other lipid molecules, as opposed to being directly engulfed within intracellular vesicles. This feature enables the dye to follow the endosomal pathway throughout the maturation process beginning from the plasma membrane, as opposed to commonly employed pH-dependent methods to control accumulation within vesicle subtypes.
On the technique in general: In flow cytometry, cells or beads pass a laser one at a time.

Series [4] relates to HeLa cells. Described as above. It counts as cell-based. The note with it: 1 μM dye, 3 h. On the procedure:
as §1

Series [5] deals with HeLa cells. Nature of the series: Time-dependent colocalization with organelle probes, confocal microscopy. The series is classed as cell-based. On the procedure: (b) Confocal image of A549 cells stained with 1 μM COE-BYPhOC4. Confocal images of (c) A549 and (d) HeLa cells. Cells were prestained with COE-BYPhOC4 (red) for 4 hours and then stained with commercial plasma membrane dye CellMask Deep Red (blue and green, respectively) for 5 min. (e) Confocal images for time-dependent colocalization experiments. HeLa cells were stained with 1 μM COE-BYPhOC4 with different incubation times (2 h, 8 h, 24 h and 48 h). Cells were imaged in multiple channels to collect fluorescence signals from COE-BYPhOC4 and other commercial organelle dyes. Red: COE-BYPhOC4; the first column green: CellLight Early Endosome-GFP; the second column green: CellLight Late Endosome-GFP; the third column deep blue: CellLight Lysosomes-GFP; the fourth column sky blue: HCS LipidTOX™ Deep Red; the fifth column yellow: MitoTracker Deep Red. Scale bar: 5 μm.
Insights into the intracellular location of COE-BYPhOC4 at different time points were sought through colocalization experiments with a panel of common commercial organelle probes (CellLight Early Endosome-GFP, CellLight Late Endosome-GFP, CellLight Lysosomes-GFP, LipidTOX™ Deep Red, and MitoTracker Deep Red). To label the vesicles in the endocytic pathway with high specificity and avoid dye translocation associated with alkalinizing effects and equilibrium shifts after extended durations, we elected to use GFP-tagged markers that are definitive for each vesicle subtype, namely Rab5a, Rab7a, and Lamp-1 for early endosomes, late endosomes, and lysosomes respectively. […] Subsequently at 8 hours, the highest overlay can be observed from COEs and the late endosome marker. Prolonged incubation beyond this point further increased the degree of colocalization, from 0.73 at 8 hours to 0.95 at 48 h.

In series [6] the test system is A549 cells. Nature of the series: Confocal microscopy of stained cells. The series is classed as cell-based. Here is the method: A549 cells were stained for 5 minutes with 0.75 μM COE-BYPhMe (red channel) before imaging and Hoechst 33342 (blue channel).
(§2) Our next objective was to study the cellular distribution of COE-BYPhOC4 series at different time points by conventional confocal microscopy.

Series [7] can be described thus: Two-photon absorption cross section. The series is classed as physicochemical. The settings on record: intercalated into SUVs. The source says:
Dynamic biological processes in live cells often take place at a rapid time scale, necessitating rapid image acquisition. For 2P-FLIM applications, this is especially relevant since a significant photon count is required to ensure accurate decay statistics and lifetime values. Two-photon imaging provides access to the NIR-II window for excitation (1000-1700 nm), minimizing photodamage and eliminating out of focus noise. As such, dye brightness plays a key role in enabling high-quality imaging. We thus evaluated their two-photon absorption cross-section of the COE-BY series. […] These properties will become relevant when determining the utility of COE-BYPhOC4 to image the endocytosis pathway and different response of living cells.

The test system of series [8] is MDCK cells. Nature of the series: Confocal microscopy of stained cells. The note with it: 1 μM, 10 minutes. It counts as cell-based.
Text: as §2

As to `CCCCOc1ccc(C2=C3C(C)=C(c4ccc(/C=C/c5cc(OCCCCCC[N+](C)(C)C)c(OCCCCCC[N+](C)(C)C)c(OCCCCCC[N+](C)(C)C)c5)cc4)C(C)=[N+]3[B-](F)(F)n3c(C)c(-c4ccc(/C=C/c5cc(OCCCCCC[N+](C)(C)C)c(OCCCCCC[N+](C)(C)C)c(OCCCCCC[N+](C)(C)C)c5)cc4)c(C)c32)cc1.[I-].[I-].[I-].[I-].[I-].[I-]` [COE-BYPhOC4], in series [1], the “fluorescence of stained GUV” value was “strong uniform fluorescence”. Moreover, the τw in series [2] (DOPC GUVs) stood at 1.6±0.2 ns; in series [2] (SM/Chol vesicles), 2.8±0.3 ns. In addition, the “dye fluorescence intensity relative to the untreated group” value amounted to 14% in series [3] (A549, chlorpromazine pretreatment); 95% in series [3] (A549, genistein pretreatment); 21% in series [4] (chlorpromazine pretreatment); 92% in series [4] (genistein pretreatment). Besides, the “degree of colocalization with late endosome marker” value in series [5] (1 μM, 8 hours) turned out to be 0.73; in series [5] (1 μM, 48 h), 0.95. Further, the “Pearson's correlation coefficient value (R) relative to GFP-tagged Rab5a (early endosome)” value in series [5] (1 μM, incubation 2 h) came out at 0.71. For the same molecule, in series [5] (all timepoints), the “colocalization with lipid droplets and mitochondria markers” value was “poor colocalization with lipid droplets and mitochondria markers at all timepoints”. Further, the staining pattern result is “strong fluorescence signals were observed on the plasma membranes” in series [6] (A549, 1 μM, 10 minutes) and “strong fluorescence signals were observed on the plasma membranes” in series [8]. In addition, in series [6] (incubation for 4 hours), the location of emission result is listed as “predominantly intracellular emission”. Besides, the “two photon absorption cross section area” value in series [7] worked out at 486 GM.
